The assay has as its target T1, human MC4 receptor (Homo sapiens, UniProt P32245).
T1 construct: purchased Biolinks K.K; host or cells: HEK-293
Put plainly: MC4 receptor binding experiment ([125I]Nle4-D-Phe7-α-MSH displacement). The settings on record: human MC4 receptor expressing HEK-293 cell membrane; [125I]Nle4-D-Phe7-α-MSH 0.2 nM, 25° C. The protocol: The MC4 receptor binding experiment was performed according to the method described in Pharmacology & Toxicology, 79, 161-165, 1996. The human MC4 receptor expressing-cell membrane obtained by expressing the human MC4 receptor in a HEK-293 cell was purchased from Biolinks K.K. The cell membrane was homogenized with 50 mM tris hydrochloride buffer (pH 7.4) containing 2 mM ethylenediaminetetraacetic acid, 10 mM calcium chloride, and 100 μM phenylmethylsulfonyl fluoride. The homogenate was centrifuged at 48,000×g at 4° C. for 20 min. The sediment obtained by centrifugation was rehomogenized with the same buffer, and the homogenate was centrifuged at 48,000×g at 4° C. for 20 min. This procedure was repeated twice. The sediment was suspended in 50 mM tris hydrochloride buffer (pH 7.4) containing 2 mM ethylenediaminetetraacetic acid, 10 mM calcium chloride, 100 μM phenylmethylsulfonyl fluoride, and 0.1% bovine serum albumin at a protein concentration of 100 μg/ml, and the suspension was used as a crude membrane preparation for the binding experiment. The crude membrane preparation (0.25 ml, 25 μg protein) was reacted with [^125I]Nle^4-D-Phe^7-α-MSH (final concentration, 0.2 nM) at 25° C. for 120 min. After completion of the reaction, the reaction solution was filtered by suction, using a cell harvester for the receptor binding experiment, onto a GF/C glass fiber filter paper immersed in 50 mM tris hydrochloride buffer (pH 7.4) containing 0.5% bovine serum for 2 h. Radioactivity on the filter paper was measured using a γ counter. The quantity of binding in the presence of 1 μM Nle^4-D-Phe^7-α-MSH was obtained as nonspecific binding, and specific binding was obtained by deducting the nonspecific binding from the total quantity, binding in the absence of 1 μM Nle^4-D-Phe^7-α-MSH. The test drug was dissolved in 100% DMSO solution and added to the membrane preparation at the same time as [^125I]Nle^4-D-Phe^7-α-MSH. The IC50 value was obtained from the inhibition curve in the range of 10^−10 to 10^−5 M. The binding test results of representative compounds are shown in Table 21 as examples.

T1 sequence (P32245 whole entry): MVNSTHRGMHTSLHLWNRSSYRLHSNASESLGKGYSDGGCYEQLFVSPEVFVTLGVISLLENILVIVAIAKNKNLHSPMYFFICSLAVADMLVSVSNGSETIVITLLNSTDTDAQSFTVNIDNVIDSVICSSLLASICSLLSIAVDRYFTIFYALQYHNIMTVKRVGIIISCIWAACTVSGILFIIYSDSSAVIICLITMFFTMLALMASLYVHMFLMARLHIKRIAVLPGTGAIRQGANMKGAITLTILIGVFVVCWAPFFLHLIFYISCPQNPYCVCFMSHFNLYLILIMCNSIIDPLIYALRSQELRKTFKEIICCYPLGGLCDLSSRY

`Cc1cc(N2CCCCC2)nc(N[C@@H]2CN(C(=O)Cc3ccc(OC(F)(F)F)cc3)C[C@H]2O)n1` [Compound 13-005]: the IC50 amounted to 21 nM. In other words, the double-digit nanomolar range.

Compound `Cc1cc(N2CCOCC2)cc(N[C@@H]2CN(C(=O)Cc3ccc(OC(F)(F)F)cc3)C[C@H]2O)n1` [Compound 14-001, 1-((3R,4R)-3-hydroxy-4-(6-methyl-4-morpholin-4-ylpyridin-2-ylamino)pyrrolidin-1-yl)-2-(4-trifluoromethoxyphenyl)ethanone] came in with an IC50 of 16 nM.

Regarding `COc1cc(N[C@H]2CCN(C(=O)Cc3ccc(OC(F)(F)F)cc3)C2)nc2ccc(C)cc12` [Compound 3-034], the IC50 was 16 nM.

As to `CS(=O)(=O)C1CCN(c2cc(N[C@H]3CCN(C(=O)Cc4ccc(OC(F)(F)F)cc4)C3)nc3ccsc23)CC1` [Compound 7-002, (S)-1-(3-(7-(4-methylsulfonylpiperidin-1-yl)thieno[3,2-b]pyridin-5-ylamino)pyrrolidin-1-yl)-2-(4-trifluoromethoxyphenyl)ethanone], the IC50 is 94 nM.

`O=C1CN(c2nc(N[C@H]3CCN(C(=O)Cc4cc(F)ccc4-c4ccc(OC(F)(F)F)cc4)C3)nc3cc(F)ccc23)CCN1` [Compound 1-133]: the 50% inhibitory concentration (IC50) worked out at 4.4 nM.

`COc1ccc2nc(N[C@@H]3CN(C(=O)Cc4ccc(OC(F)(F)F)cc4)C[C@H]3O)cc(OC)c2c1` [Compound 12-017]: the 50% inhibitory concentration (IC50) stood at 3.3 nM.

`COc1ccc2nc(N[C@H]3CCN(C(=O)Cc4ccc(OC(F)(F)F)cc4)C3)nc(N(C)C)c2c1` [Compound 1-005] returned an IC50 of 2.8 nM.

Values taken from patent US8044068B2, “Aminopyrrolidine compound” (Taisho Pharmaceutical Co., Ltd, priority 2006, dated 2011).
